Counter-ions that a name gives are not always drawn.
How the values were obtained:
[1] = Pharmaceutical effect, stated in words
[2] = Hygroscopic test under conditions of 25° C. and 75% RH (Test Example 1); type: physicochemical
Experimental: Hygroscopic test of 2-hydrochloride and 3/2-hydrochloride under conditions of 25° C. and 75% RH
A humidity conditioning solution was prepared by using a saturated aqueous solution of sodium chloride, and the solution thus prepared was placed in a humidistat, and temperature-moisture conditions at 25° C. were adjusted. 0.4 g of 2-hydrochloride and 0.2 g of 3/2-hydrochloride were weighed respectively in a weighing bottle to prepare test samples, and the test samples were subjected to hygroscopic test under the above adjusted temperature-moisture conditions to measure a water content and a decomposed material content as a lapse of time and to compare hygroscopicity and stability of the test samples.

[3] = Comparison of biological dynamics in a dog, 10 mg/kg oral administration by capsules; type: in vivo; conditions: for AUC (0-.infin.) / Cmax: 10 mg/kg oral administration by capsules, 10 mg/kg
Experimental: Further, the compound (1) and its 3/2-hydrochloride (2) were compared with regard to biological dynamics in a dog. […] Result: (10 mg/kg oral administration by capsules)

[4] = Physical properties and stability of the hydrochlorides, stated in words
[5] = 10 mg/kg oral by capsules, ratio to compound (1)

Row | Compound | pharmaceutical effect [1] | Water content ([2]; Time 0) [%] | Increased decomposed material content ([2]; Time 1) [%] | Water content ([2]; Time 1) [%] | Increased decomposed material content ([2]; Time 24) [%] | Water content ([2]; Time 24) [%] | Increased decomposed material content ([2]; Time 48) [%] | Water content ([2]; Time 48) [%] | AUC (0-.infin.) [3] [ng·h/mL] | Cmax [3] [ng/mL] | area under the curve (AUC) of time-concentration in blood (0-.infin.), times more preferable as compared with the compound (1) [3, 5] [times] | maximum concentration in blood (Cmax), times higher as compared with the compound (1) [3, 5] [times] | hygroscopicity [4] | decomposition in a methanol solvent ([4]; methanol solvent) | degraded ([2]; solid, 75% rh, Time 1, read-out: Increased decomposed material content) [%] | electrostatic charging of the crystal [4] | solubility [4]
1 | COc1ccc(CNc2cn[nH]c(=O)c2Cl)cc1OCC(=O)N1CCN(Cc2ccccc2)CC1 [Compound 2, 3/2-Hydrochloride of 4-chloro-5-[3-(4-benzylpiperazin-1-yl)carbonylmethoxy-4-methoxybenzylamino]-3 (2H) -pyridazinone] | equivalent to that of 2-hydrochloride | 2.03 | 0.06 | 2.42 | 0.17 | 2.34 | 0.18 | 2.57 | 1998.3 | 1349.0 | 2.3 | 5.4 |  |  |  |  | 
2 | COc1ccc(CNc2cn[nH]c(=O)c2Cl)cc1OCC(=O)N1CCN(Cc2ccccc2)CC1 [2-hydrochloride, 2-Hydrochloride of 4-chloro-5-[3-(4-benzylpiperazin-1-yl)carbonylmethoxy-4-methoxybenzylamino]-3 (2H) -pyridazinone] | excellent pharmaceutical effect | 0.93 |  | 4.17 | 1.75 | 5.60 | 11.78 | 9.45 |  |  |  |  | highly hygroscopic | rapidly decomposed in a methanol solvent | 0.08 |  | 
3 | COc1ccc(CNc2cn[nH]c(=O)c2Cl)cc1OCC(=O)N1CCN(Cc2ccccc2)CC1 [1-hydrochloride] |  |  |  |  |  |  |  |  |  |  |  |  | high hygroscopicity |  |  | easily electrostatically charged | poor in solubility
4 | COc1ccc(CNc2cn[nH]c(=O)c2Cl)cc1OCC(=O)N1CCN(Cc2ccccc2)CC1 [Compound 1, 4-chloro-5-[3-(4-benzylpiperazin-1-yl)carbonylmethoxy-4-methoxybenzylamino]-3(2H)-pyridazinone] |  |  |  |  |  |  |  |  | 844.3 | 249.7 |  |  |  |  |  |  | 

— patent publication US6310065A, “Pyridazinone hydrochloride compound and method for producing the same” (Nissan Chemical Industries, Ltd., priority 1998, dated 2001)
